Results: patent EP0933350A1, “Tricyclic retinoids, methods for their production and use” (LIGAND PHARMACEUTICALS INCORPORATED, priority 1994, dated 1996)

Assays:
[1] = test system: TPA induction of ODC; assay: ornithine decarboxylase (ODC) assay: inhibition of TPA induction of ODC; assay type: cell-based; details: concentration required to inhibit the TPA induction of ODC by 80 percent
[2] = test system: ME 180 cell line; assay: incorporation of 3H-thymidine (antiproliferative); assay type: cell-based; details: Homo sapiens, 96 hours, radiolabeled thymidine incorporation, read-out: TdR IC50
[3] = test system: AML-193 cell line; assay: viability (tetrazolium dye, mitochondrial function); assay type: cell-based; details: Homo sapiens, 96 hours, read-out: MTS IC50
[4] = test system: RPMI 8226 cell line; assay: incorporation of 3H-thymidine (antiproliferative); assay type: cell-based; details: Homo sapiens, 96 hours, radiolabeled thymidine incorporation, read-out: TdR IC50
[5] = test system: AML-193 cell line; assay: incorporation of 3H-thymidine (antiproliferative); details: Homo sapiens, 96 h, read-out: TdR IC50 (nM)
[6] = test system: ME 180 cell line; assay: viability (tetrazolium dye, mitochondrial function); assay type: cell-based; details: Homo sapiens, 96 hours, read-out: MTS IC50
[7] = test system: RPMI 8226 cell line; assay: as above; assay type: cell-based; details: Homo sapiens, 96 hours, read-out: MTS IC50

SMILES: CCOC(=O)/C=C(C)/C=C/C=C1/CCCc2cc3c(cc21)C(C)(C)CCC3(C)C [Compound 101a, Ethyl (2E,4E)-3-methyl-6-[(Z)-3,4,5,6,7,8-hexahydro-5,5,8,8-tetramethyl-2H-anthracen-1-ylidene]hexa-2,4-dienoate]
- IC80 [1]: 91 nM

SMILES: CC(/C=C/C=C1/CC(C)(C)Oc2cc3c(cc21)C(C)(C)CCC3(C)C)=C\C(=O)O [Compound 104b, (2E,4E)-3-Methyl-6-(2,3,6,7,8,9-hexahydro-2,2,6,6,9,9-hexamethylbenzo[b]-chromen-4-ylidene)-hexa-2,4-dienoic acid]
- IC50 [2]: 90 nM
- IC50 [3]: 1000 nM
- IC50 [4]: 30 nM
- IC50 [5]: 90 nM
- IC50 [6]: 1000 nM
- IC50 [7]: 90 nM
